Bridge positions count the residues as written; N and C are the ends. Peptide text beside a SMILES is read from it.
Experiments:
[1] = cited from earlier work
[2] = tested on: colonic tumors after AOM/DSS treatment; details: diet supplemented with tributyrin; Donohoe et al.; cited from earlier work
[3] = Caecum and colon weight and diarrhea observation in the AOM/DSS mouse trial; assay type: in vivo, wild type mice (BALB/c)
Source text: Thirty wild type mice (BALB/c) were maintained in individually ventilated cages (specific pathogen-free conditions) and divided in four age- and gender-matching groups at the age of 4 weeks. The schematic study set up of the mouse trial using AOM/DSS-based CRC mouse model is represented in FIG. 1.
Accordingly, group A received a semi-synthetic control diet (Hoevenaars F P M, van Schothorst E M, Horakova O, Voigt A, Rossmeisl M, Pico C, Caimari A, Kopecky J, Klaus S, Keijer J. BIOCLAIMS standard diet (BIOsd): a reference diet for nutritional physiology. Genes Nutr. 2012; 7:399-404), group B received a semi-synthetic diet with fiber-supplementation (containing about 46,2 g resistant starch type 2 per 1 kg diet), group C received a semi-synthetic control diet with linaclotide supplementation in drinking water (0.069 μg/mL; replaced every second day; dosage of linaclotide was calculated based on a previous study that applied 0.207 μg/day/mouse via oral gavage (Sharman S K, Islam B N, Hou Y, Singh N, Berger F G, Sridhar S, Yoo W, Browning D D. Cyclic-GMP-Elevating Agents Suppress Polyposis in ApcMin Mice by Targeting the Preneoplastic Epithelium. Cancer Prev Res (Phila Pa). 2018; 11:81-92.) and an assumed daily intake of 3 mL H2O per mouse; this mimics a daily intake of about 0.6 mg in a 70 kg healthy human, which is close to amounts used in previous clinical studies (Weinberg D S, Lin J E, Foster N R, Della'Zanna G, Umar A, Seisler D, Kraft W K, Kastenberg D M, Katz L C, Limburg P J, et al. Bioactivity of Oral Linaclotide in Human Colorectum for Cancer Chemoprevention. Cancer Prev Res Phila Pa. 2017; 10:345-54.)), group D received a combination of fiber-supplemented diet (containing about 46,2 g resistant starch type 2 per 1 kg diet), and linaclotide (0.069 μg/mL).
FIGS. 4 a) to d) represent graphs on the effect of butyrate acting as osmotic antagonist of linaclotide or GUCY2C signaling limiting the flow of H2O to the gut lumen. […] Single dots represent single mice; statistical analysis using One-way ANOVA with Kruskal-Wallis post-test, *=p<0.05. **=p<0.01.

[4] = in vivo; cited from earlier work

SMILES	solubility in water [1]	tumor levels in the colon after AOM/DSS treatment [2]	caecum weight (indication of amounts of H2O in the gut lumen) ([3]; FIG. 4a)	colon weight (indication of amounts of H2O in the gut lumen) ([3]; FIG. 4b)	side effect diarrhea ([3]; at the administered linaclotide concentration (0.069 μg/mL drinking water))	people taking the drug who have diarrhea [4]
CCCC(=O)OCC(COC(=O)CCC)OC(=O)CCC [Tributyrin, 1,3-di(butanoyloxy)propan-2-yl butanoate]	only poorly soluble	lowest tumor levels				
C[C@@H]1NC(=O)[C@@H]2CCCN2C(=O)[C@H](CC(N)=O)NC(=O)[C@@H]2CSSC[C@H](N)C(=O)N[C@H]3CSSC[C@H](NC1=O)C(=O)N[C@@H]([C@@H](C)O)C(=O)NCC(=O)N[C@H](C(=O)N[C@@H](Cc1ccc(O)cc1)C(=O)O)CSSC[C@H](NC(=O)[C@H](Cc1ccc(O)cc1)NC(=O)[C@H](CCC(=O)O)NC3=O)C(=O)N2 [linaclotide, Linaclotide] (H-CCEYCCNPACTGCY-OH; disulfide 1-6, 2-10, 5-13)			higher	higher	did not observe	More than 10%
